ChEMBL document CHEMBL4739710, “Tetrahydropyridopyrazines as modulators of GPR6” (2020)

Biological target: G-protein coupled receptor 6 (Homo sapiens, UniProt P46095)
Test: Modulation of GPR6 (unknown origin) expressed in CHO-K1 cells assessed as inhibition of constitutive cAMP activity by HTRF assay
Type: functional, cell-based

Chain of G-protein coupled receptor 6 (P46095 whole entry): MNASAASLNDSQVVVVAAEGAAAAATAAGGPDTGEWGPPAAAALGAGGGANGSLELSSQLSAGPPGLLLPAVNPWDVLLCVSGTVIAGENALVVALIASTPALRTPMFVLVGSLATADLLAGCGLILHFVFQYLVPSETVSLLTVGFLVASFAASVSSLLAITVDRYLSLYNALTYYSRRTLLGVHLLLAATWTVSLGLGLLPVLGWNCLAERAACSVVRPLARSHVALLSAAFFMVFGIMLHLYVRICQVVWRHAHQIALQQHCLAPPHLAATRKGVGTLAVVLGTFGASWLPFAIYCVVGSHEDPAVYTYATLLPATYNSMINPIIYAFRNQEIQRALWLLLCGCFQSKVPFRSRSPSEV

Question: For `Cc1cc2nc(N[C@@H]3CCOC3)c(N3CCN(Cc4ccc(F)cc4F)CC3)nc2cn1`, which EC50 is on record?
Answer: Its EC50 is 47.9 nM.
